Measurements published in US8933071B2, “Dimethyl fasudil for inducing polyploidization of megakaryocytes and for treating blood and bone marrow diseases and disorders” (Northwestern University, priority 2008, dated 2015).
“Also recorded” adds a separate entry of the source.

What was measured:
Meg-01 = assay: Polyploidization of Meg-01 cells; type: cell-based
[1] = test system: 6133/MPL megakaryocytic leukemia cells; assay: 6133/MPL transplant model of AMKL, pre-treatment of cells; type: in vivo, C57B1/6 mice
Source text: FIG. 9 illustrates that DMF blocks the development of AMKL in vivo. a) Histology of spleens from control and 6133/MPL transplanted mice at 20 days. b) Survival analysis of the effect of DMF pre-treatment on AMKL development in recipient mice. p<0.0005 (Log rank test). N=6 mice (vehicle (DMSO) pre-treatment) or N=7 (DMF pre-treatment) per group.
To determine whether polyploidization-inducing agents can serve as new therapies for AMKL, we established an AMKL animal model. We developed an animal model of AMKL by transplanting 6133/MPL megakaryocytic leukemia cells (35) into sub-lethally irradiated recipient C57B1/6 mice. The parental 6133 cell line, which is dependent upon TPO for survival, was derived from a leukemic mouse that expressed the AMKL t(1:22) fusion protein OTT-MAL by knock-in gene targeting. 6133 cells were then transduced with a MPLW515L expressing retrovirus, and stable TPO-independent clones were isolated. We discovered that C57B1/6 mice transplanted with 1 million 6133/MPL cells developed a fulminant AMKL within 21 days. The disease was characterized by massive infiltration of CD41+ cells in the bone marrow and spleen. These mice will be utilized as animal models to quantify the effect of small molecule inducers of polyploidization on disease progression in vivo.
To determine whether polyploidization-inducing agents can serve as new therapies for AMKL, DMF was assessed in an animal model for AMKL. To this end, an animal model of AMKL was developed by transplanting 6133/MPL megakaryocytic leukemia cells into sub-lethally irradiated recipient C57B1/6 mice. The parental 6133 cell line, which is dependent upon TPO for survival, was derived from a leukemic mouse that expressed the AMKL t(1:22) fusion protein OTT-MAL by knock-in gene targeting (35). […]
C57BL/6 mice (purchased from the Jackson Laboratory, Bar Harbor, Me.) were sub-lethally irradiated with 600 rads. […] Development of disease was assessed with presence of GFP-positive cells in the peripheral blood by FACS and by monitoring the health and body weight of the animals. […]

For dimethylfasudil [DMF], the induction of polyploidization (Meg-01) was “potent inducer of polyploidization”, the “development/progression of AMKL in recipient mice” value ([1]; 6133/MPL cells pre-treated with 5 μM for 24 hours before transplant) was “interfered with their ability to cause a tumor; also recorded: striking and significant delay in progression of AMKL” and the “time mice healthy with no signs of disease” value ([1]; all mice implanted with cells pre-treated with 5 μM for 24 hours) was “at least 200 days”. For the same substance, the “survival analysis p (Log rank test)” value ([1]; pre-treatment vs vehicle (DMSO) pre-treatment) was < 0.0005.
